Values of other authors in patent US20250099443A1, “METHODS FOR SYNTHESIZING ALEUTIANAMINE AND ANALOGS THEREOF” (California Institute of Technology, priority 2023, published 2025).
pIC50: −log10 of the molar value.

System: human pancreatic adenocarcinoma cell line PANC-1

O=C1C2=C3C4=[N+](CCc5c[nH]c1c54)[C@@H]1C[C@]34S[C@@H](C=C4C=C1Br)N2 [Aleutianamine]
pIC50 (human pancreatic adenocarcinoma cell line PANC-1, read-out: IC50 against PANC-1): 7.60 | potency against PANC-1 relative to gemcitabine (times greater than that of gemcitabine): over 160 times
